# From article PMC5216056 (Nature Communications, 2017)
# Values joined by “and” are separate entries in the source; they are usually repeats but may differ in a detail not shown here. Equal entries are not always repeated. Where two headings read alike, the source gives them in different places.
# Experiments:
# mCB1R = biological target: T1, mCB1R (Mus musculus, UniProt P47746); test: biochemical
# T1 construct: from tissue; host or cells: brain of male C57BL/6J mice
# mCB2R = mCB2R (Mus musculus, UniProt P47936); test: biochemical; type: biochemical; set-up: from tissue; host or cells: spleen of male C57BL/6J mice; details: for pEC50 ± SEM cAMP mCB2R: mouse spleen
# Chain of mCB2R (P47936 whole entry): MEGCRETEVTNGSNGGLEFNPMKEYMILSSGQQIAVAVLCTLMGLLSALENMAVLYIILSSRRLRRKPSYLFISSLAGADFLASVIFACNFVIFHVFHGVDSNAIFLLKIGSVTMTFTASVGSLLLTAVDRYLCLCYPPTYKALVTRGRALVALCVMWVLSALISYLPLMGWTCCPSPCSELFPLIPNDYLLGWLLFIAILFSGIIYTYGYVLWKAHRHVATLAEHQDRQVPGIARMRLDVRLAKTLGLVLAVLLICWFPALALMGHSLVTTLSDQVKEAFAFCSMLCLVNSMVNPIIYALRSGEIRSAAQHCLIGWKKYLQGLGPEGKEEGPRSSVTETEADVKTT
# MAGL = biological target: T2, MAGL (Homo sapiens, UniProt Q99685); test: Biochemical MAGL activity assay
# T2 construct: expressed in transfected cells; host or cells: HEK293T (transient), membrane preparation
# T2 sequence (Q99685 1-303): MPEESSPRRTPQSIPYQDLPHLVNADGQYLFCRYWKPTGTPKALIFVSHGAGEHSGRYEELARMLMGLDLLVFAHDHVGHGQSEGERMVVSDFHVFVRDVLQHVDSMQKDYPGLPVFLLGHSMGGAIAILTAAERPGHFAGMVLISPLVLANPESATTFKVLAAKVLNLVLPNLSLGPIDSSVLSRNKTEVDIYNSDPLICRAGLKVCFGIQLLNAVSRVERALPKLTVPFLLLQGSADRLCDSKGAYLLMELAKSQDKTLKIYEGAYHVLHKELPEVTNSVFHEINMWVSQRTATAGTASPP
# Protocol: (§1) Cell culture and membrane preparation were performed as previously described. HEK293T cells (source: Dutch Cancer Institute) were grown in DMEM with stable glutamine and phenolred (PAA), 10% New Born Calf serum, penicillin and streptomycin. Cells were passaged every 2–3 days by resuspending in medium and seeding them to appropriate confluence. Membranes were prepared from transiently transfected HEK293T cells. One day prior to transfection 10^7 cells were seeded in a 15 cm petri dish. Cells were transfected by the addition of a 3:1 mixture of polyethyleneimine (60 μg) and plasmid DNA (20 μg) in 2 ml serum-free medium. The medium was refreshed after 24 h, and after 72 h the cells were harvested by suspending them in 20 ml medium. The suspension was centrifuged for 10 min at 1000, rpm, and the supernatant was removed. The cell pellet was stored at −80 °C until use. Cell pellets were thawed on ice and suspended in lysis buffer A (20 mM HEPES, 2 mM DTT, 0.25 M sucrose, 1 mM MgCl2, […] Benzonase). The suspension was homogenized by polytrone (3 × 7 s) and incubated for 30 min on ice. The suspension was subjected to ultracentrifugation (100,000 × g, 30 min, 4 °C, Beckman Coulter, Type Ti70 rotor) to yield the cytosolic fraction in the supernatant and the membrane fraction as a pellet. The pellet was resuspended in lysis buffer B (20 mM HEPES, 2 mM DTT). The protein concentration was determined with Quick Start Bradford assay (Biorad). The protein fractions were diluted to a total protein concentration of 1 mg ml^−1 and stored in small aliquots at −80 °C until use.
# Percentage of inhibition of reference ligands was determined in comparison with an untreated control. […] Fluorescence was measured in 5 min intervals for 60 min.
# hDAGL-α = biological target: T3, hDAGL-α (Homo sapiens, UniProt Q9Y4D2); test: Biochemical DAGLα activity assay
# T3 construct: expressed in transfected cells; host or cells: HEK293T (transient), membrane preparation
# T3 sequence (Q9Y4D2 1-1042): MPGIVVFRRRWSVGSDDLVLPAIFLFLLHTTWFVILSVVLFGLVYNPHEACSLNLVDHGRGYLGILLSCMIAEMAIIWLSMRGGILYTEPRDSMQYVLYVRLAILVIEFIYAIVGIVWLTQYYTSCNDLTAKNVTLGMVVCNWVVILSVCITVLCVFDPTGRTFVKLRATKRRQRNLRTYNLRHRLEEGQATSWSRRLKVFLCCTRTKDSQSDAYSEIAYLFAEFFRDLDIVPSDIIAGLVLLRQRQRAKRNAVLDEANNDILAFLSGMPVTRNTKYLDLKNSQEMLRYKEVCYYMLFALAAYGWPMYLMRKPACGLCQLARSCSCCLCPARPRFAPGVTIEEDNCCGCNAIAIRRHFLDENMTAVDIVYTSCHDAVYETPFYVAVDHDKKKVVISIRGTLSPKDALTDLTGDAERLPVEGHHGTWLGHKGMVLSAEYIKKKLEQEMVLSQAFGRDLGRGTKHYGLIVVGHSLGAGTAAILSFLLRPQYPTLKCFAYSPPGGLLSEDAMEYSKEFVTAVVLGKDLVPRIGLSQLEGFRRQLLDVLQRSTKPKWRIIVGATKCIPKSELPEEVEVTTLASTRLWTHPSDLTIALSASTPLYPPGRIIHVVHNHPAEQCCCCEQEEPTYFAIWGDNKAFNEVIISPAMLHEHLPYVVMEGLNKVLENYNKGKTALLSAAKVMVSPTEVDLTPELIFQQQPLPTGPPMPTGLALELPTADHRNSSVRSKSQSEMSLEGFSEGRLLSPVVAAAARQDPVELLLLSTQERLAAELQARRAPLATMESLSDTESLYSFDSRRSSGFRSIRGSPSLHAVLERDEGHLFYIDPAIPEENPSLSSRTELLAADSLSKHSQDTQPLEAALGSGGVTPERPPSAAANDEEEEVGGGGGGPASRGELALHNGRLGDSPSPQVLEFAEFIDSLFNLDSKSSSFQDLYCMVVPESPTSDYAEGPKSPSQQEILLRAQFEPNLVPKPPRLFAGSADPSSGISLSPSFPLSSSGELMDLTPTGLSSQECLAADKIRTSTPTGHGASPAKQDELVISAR
# Protocol: as §1
# hDAGL-α activity was measured by the extent of the hydrolysis of para-nitrophenylbutyrate (PNP-butyrate) by membrane preparations from HEK293T cells (source: Dutch Cancer Institute) transiently transfected with hDAGL-α (ref. [43]). Percentage of inhibition of reference ligands was determined in comparison with an untreated control. Reactions were performed in 50 mM pH 7.2 HEPES buffer with 0.05 μg μl^−1 final protein concentration hDAGL-α transfected protein.
# hCB2R [1] = biological target: T4, hCB2R (Homo sapiens, UniProt P34972); test: cell-based; type: cell-based; set-up: expressed in transfected cells; host or cells: Flp-In-293 (Invitrogen #R750-07), pcDNA5/FRT
# T4 sequence (P34972 whole entry): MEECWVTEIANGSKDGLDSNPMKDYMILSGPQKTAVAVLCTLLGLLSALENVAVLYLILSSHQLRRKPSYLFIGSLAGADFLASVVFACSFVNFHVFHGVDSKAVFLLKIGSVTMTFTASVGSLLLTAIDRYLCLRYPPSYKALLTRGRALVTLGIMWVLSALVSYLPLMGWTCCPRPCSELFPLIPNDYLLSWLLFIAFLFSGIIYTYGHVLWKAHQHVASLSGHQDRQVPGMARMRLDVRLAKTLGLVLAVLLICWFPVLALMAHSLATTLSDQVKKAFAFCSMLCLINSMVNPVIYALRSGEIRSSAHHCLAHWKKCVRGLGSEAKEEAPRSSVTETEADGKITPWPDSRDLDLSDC
# 5-HT2B (h) = biological target: T5, 5-HT2B (h) (Homo sapiens, UniProt P41595); test: CEREP panel; type: binding; details: for % inhibition 5-HT2B (h): 10 µM
# T5 construct: CEREP (contract assay)
# T5 sequence (P41595 whole entry): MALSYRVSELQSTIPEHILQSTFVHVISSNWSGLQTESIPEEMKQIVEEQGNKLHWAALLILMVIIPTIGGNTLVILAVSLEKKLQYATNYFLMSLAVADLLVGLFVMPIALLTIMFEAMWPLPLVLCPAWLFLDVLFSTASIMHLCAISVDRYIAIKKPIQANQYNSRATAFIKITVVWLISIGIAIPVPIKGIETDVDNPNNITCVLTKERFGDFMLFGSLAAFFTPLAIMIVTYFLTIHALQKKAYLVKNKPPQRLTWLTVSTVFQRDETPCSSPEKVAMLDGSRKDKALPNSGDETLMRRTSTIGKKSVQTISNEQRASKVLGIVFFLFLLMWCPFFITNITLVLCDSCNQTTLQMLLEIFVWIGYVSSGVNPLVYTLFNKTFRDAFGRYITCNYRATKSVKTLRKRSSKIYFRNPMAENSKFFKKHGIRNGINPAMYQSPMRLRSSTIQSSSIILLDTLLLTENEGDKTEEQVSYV
# hCB2R [2] = biological target: T4, hCB2R; test: cell-based; type: cell-based
# hCB2R [3] = biological target: T4, hCB2R; test: cell-based; type: cell-based; set-up: expressed in transfected cells; host or cells: Flp-In-293 (Invitrogen #R750-07), pcDNA5/FRT; remark: listed apart in the source
# [4] = antagonists in presence of EC80 of CP55940
# [5] = normalized to 10 µM CP55940, negative = inhibition of EC80 of CP55940
# T1 sequence (P47746 whole entry): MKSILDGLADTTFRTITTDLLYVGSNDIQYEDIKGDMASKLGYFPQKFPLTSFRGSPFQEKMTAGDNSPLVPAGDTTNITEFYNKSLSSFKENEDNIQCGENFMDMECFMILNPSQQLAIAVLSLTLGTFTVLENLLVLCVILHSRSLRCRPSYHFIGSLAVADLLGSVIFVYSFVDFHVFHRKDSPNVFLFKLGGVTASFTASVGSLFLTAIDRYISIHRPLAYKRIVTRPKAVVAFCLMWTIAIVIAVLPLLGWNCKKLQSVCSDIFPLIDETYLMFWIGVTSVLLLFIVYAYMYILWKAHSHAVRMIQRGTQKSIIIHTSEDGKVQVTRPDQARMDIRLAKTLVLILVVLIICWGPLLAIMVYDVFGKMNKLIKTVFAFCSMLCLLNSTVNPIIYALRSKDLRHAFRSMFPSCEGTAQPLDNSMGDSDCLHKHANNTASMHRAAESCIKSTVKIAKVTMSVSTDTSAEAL
Molecule,Emax cAMP mCB1R (mCB1R),pEC50 ± SEM cAMP mCB1R (mCB1R; mouse brain),Emax cAMP mCB2R (mCB2R),pEC50 ± SEM cAMP mCB2R (mCB2R),MAGL % inhibition at 10 µM ± SD (MAGL),DAGL % inhibition at 10 µM ± SD (hDAGL-α),Emax ± SEM pERK hCB2R (hCB2R [1]),pEC50 ± SEM pERK hCB2R (hCB2R [1]),% inhibition 5-HT2B (h) (5-HT2B (h)),Emax ± SEM β-AR recruitment hCB2R (hCB2R [2]),pEC50 ± SEM β-AR recruitment hCB2R (hCB2R [2]),Emax ± SEM cAMP hCB2R (hCB2R [3]),pEC50 ± SEM cAMP hCB2R (hCB2R [3]),Emax cAMP mCB1R (mCB1R; normalized to 10 µM CP55940),Emax cAMP mCB2R (mCB2R; normalized to 10 µM CP55940),Emax ± SEM pERK hCB2R (hCB2R [1]; normalized to 10 µM CP55940),Emax ± SEM β-AR recruitment hCB2R (hCB2R [2]; [5]),Emax ± SEM cAMP hCB2R (hCB2R [3]; normalized to 10 µM CP55940),also measured
COc1ccc(C(=O)c2c(C)n(CCN3CCOCC3)c3cc(I)ccc23)cc1 [AM630],13,< 5,-65,7.93 ± 0.3,4 ± 16%,6 ± 12%,-92 ± 4,5.09 ± 0.06,65%,-124 ± 6,6.15 ± 0.08,-152 ± 13,7.56 ± 0.05,–,–,–,–,–,–
CCCCCCC(C)(C)c1cc(OC)c([C@@H]2C=C(CO)[C@@H]3C[C@H]2C3(C)C)c(OC)c1 [HU308],–,–,–,–,–,–,–,–,–,–,–,–,–,–,–,–,–,–,"EC50 (mCB1R; pEC50 ± SEM cAMP mCB1R, mouse brain): > 10000 nM; Emax (mCB1R; read-out: Emax cAMP mCB1R): 10%; EC50 (mCB2R): 3.72 nM; Emax (mCB2R; read-out: Emax cAMP mCB2R): 56%; inhibition at 10 µM (MAGL; read-out: MAGL % inhibition at 10 µM ± SD): 7 ± 13%; inhibition at 10 µM (hDAGL-α; read-out: DAGL % inhibition at 10 µM ± SD): 42 ± 3%; Emax (hCB2R [1]; read-out: Emax ± SEM pERK hCB2R): 93 ± 2%; inhibition at 10 µM (5-HT2B (h); read-out: % inhibition 5-HT2B (h)): 28%; Emax (hCB2R [2]; read-out: Emax ± SEM β-AR recruitment hCB2R): 57 ± 10%; Emax (hCB2R [3]; read-out: Emax ± SEM cAMP hCB2R): 98 ± 1%"
CCCCCCC(C)(C)c1cc(OC)c(C2=C[C@H]3CC[C@]2(CO)C3(C)C)c(OC)c1 [HU910],–,< 5,–,8.98 ± 0.38,20 ± 12%,36 ± 1%,–,–,87%,–,–,–,–,36%,67%,104 ± 9%,48 ± 6%,98 ± 1%,pEC50 ± SEM pERK hCB2R (hCB2R [1]; [4]): 5.50 ± 0.10 and < 5.5; pEC50 ± SEM β-AR recruitment hCB2R (hCB2R [2]; [4]): 7.75 ± 0.03; pEC50 ± SEM cAMP hCB2R (hCB2R [3]; [4]): 8.41 ± 0.13
CCCC(C)(C)c1ccc2c(c1)OC(C)(C)[C@@H]1CC=C(C)C[C@@H]21 [JWH133],11,–,95,7.75 ± 0.33,-20 ± 5%,30 ± 7%,96 ± 13,6.19 ± 0.07,3%,62 ± 11,7.81 ± 0.22,98 ± 1,8.38 ± 0.09,–,–,–,–,–,pEC50 ± SEM cAMP mCB1R (mCB1R): < 5; CB2R Selectivity β-AR recruitment (hCB2R [2]): 275 fold
SR144528,–,–,–,–,3 ± 16%,-28 ± 11%,–,–,22%,–,–,–,–,-39%,-100%,-99 ± 3%,-111 ± 3%,-151 ± 10%,–
